In US7807714B2, “Fungicidal compositions” (Syngenta Crop Protection, Inc., priority 2006, dated 2010):
“And” between values parts separate entries of the source, which are not always exact repeats. Equal entries are not always repeated. Where two headings read alike, the source gives them in different places.

Assays:
Format in all cases: cell-based
Pyrenophora Graminea = test: Activity against Pyrenophora Graminea (growth inhibition in PDB, microtiter plate, photometric); conditions: 72 hrs
Fusarium Graminearum = conditions: 48 hrs
Gäumannomyces Graminis = test: Activity Against Gäumannomyces Graminis (growth inhibition in PDB, microtiter plate, photometric); conditions: 72 hrs
Pythium Ultimum = test: Activity against Pythium Ultimum (growth inhibition in PDB, microtiter plate, photometric); conditions: 48 hrs
Rhizoctonia Solani = test: Activity against Rhizoctonia Solani (growth inhibition in PDB, microtiter plate, photometric); conditions: 48 hrs
[1] = 0.0039 ppm (mg active ingredient/liter final medium)
[2] = 0.0078 ppm (mg active ingredient/liter final medium)
[3] = 0.03125 ppm (mg active ingredient/liter final medium)
[4] = 0.0625 ppm (mg active ingredient/liter final medium)
[5] = 0.125 ppm (mg active ingredient/liter final medium)
[6] = 1.0 ppm (mg active ingredient/liter final medium)
[7] = 0.25 ppm (mg active ingredient/liter final medium)
[8] = 0.5 ppm (mg active ingredient/liter final medium)

For `Cn1cc(C(=O)Nc2ccccc2C2CC2C2CC2)c(C(F)F)n1` (racemic) [Cpd A], the “Observed control in % (% Cobs)” value (Pyrenophora Graminea; 0.002 ppm (mg active ingredient/liter final medium)) was 0%, the “Observed control in % (% Cobs)” value (Pyrenophora Graminea; [1]) was 1.3% and 3.3% and the “Observed control in % (% Cobs)” value (Pyrenophora Graminea; [2]) was 0%. For the same molecule, the “Observed control in % (% Cobs)” value (Pyrenophora Graminea; 0.0156 ppm (mg active ingredient/liter final medium)) was 0%, the “Observed control in % (% Cobs)” value (Pyrenophora Graminea; [3]) was 0% and 5.8% and the “Observed control in % (% Cobs)” value (Pyrenophora Graminea; [4]) was 4.0%. The “Observed control in % (% Cobs)” value (Pyrenophora Graminea; [5]) was 0%, the “Observed control in % (% Cobs)” value (Pyrenophora Graminea; [6]) was 0% and the “Observed control in % (% Cobs)” value (Fusarium Graminearum; [3]) was 0%. For the same molecule, the “Observed control in % (% Cobs)” value (Fusarium Graminearum; [4]) was 2.0% and 4.2%, the “Observed control in % (% Cobs)” value (Fusarium Graminearum; [5]) was 3.5% and the “Observed control in % (% Cobs)” value (Fusarium Graminearum; [7]) was 10.5% and 4.0%. For the same molecule, the “Observed control in % (% Cobs)” value (Fusarium Graminearum; [8]) was 9.3%, the “Observed control in % (% Cobs)” value (Fusarium Graminearum; [6]) was 6.6% and 5.8% and the “Observed control in % (% Cobs)” value (Gäumannomyces Graminis; [5]) was 0%. The “Observed control in % (% Cobs)” value (Gäumannomyces Graminis; [8]) was 0%, the “Observed control in % (% Cobs)” value (Gäumannomyces Graminis; [6]) was 19.4% and the “Observed control in % (% Cobs)” value (Pythium Ultimum; [1]) was 0%. The “Observed control in % (% Cobs)” value (Pythium Ultimum; [2]) was 0%, the “Observed control in % (% Cobs)” value (Pythium Ultimum; [3]) was 0% and the “Observed control in % (% Cobs)” value (Rhizoctonia Solani; [4]) was 0%. The “Observed control in % (% Cobs)” value (Rhizoctonia Solani; [5]) was 22.8% and 23.0% and 29.3% and 40.2% and the “Observed control in % (% Cobs)” value (Rhizoctonia Solani; [7]) was 73.2%.
